pEC50: −log10 of the molar value. Read-outs that look alike come from different tables or passages of the source.
Key:
HCV genotype 1b replicon = experiment: HCV replicon assay, genotype 1b replicon EC50; type: cell-based, Hepatitis C virus; conditions: Hepatitis C virus, genotype 1b replicon, read-out: EC50 [gt-1b]
Outline: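 Potency comes from a four-parameter fit of signal as percent of DMSO control. Replicon-bearing cells were treated 24-48 hours with a compound dilution series in absence of G418, and replicon RNA was quantified normalized to cyclophilin A RNA, or luciferase read.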

[1] = target: HCV NS3/4A protease genotype 1b (Hepatitis C virus genotype 1b, UniProt P26663); experiment: HCV NS3/4A protease time-resolved fluorescence (TRF) assay, Ki against genotype 1b; type: biochemical; conditions: IC50 [gt-1b] (nM), NS3/4A genotype 1b, enzyme 0.2 nM
Outline: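 Enzyme was pre-incubated 30 min with inhibitor in HEPES pH 7.5 buffer (150 mM NaCl, 15% glycerol, 10 mM DTT). Reaction ran 2.5 h at room temperature with 25 nM europium TRF peptide substrate, read at ex 340/em 615 nm. Enzyme levels: 0.2 nM (1b), 0.4 nM (A156T), 0.025 nM (3a). Ki came from four-parameter IC50 via IC50=Ki(1+[S]/KM).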

SMILES | pEC50 (HCV genotype 1b replicon; HCOOH salt) | IC50 ([1]; HCOOH salt) | pEC50 (HCV genotype 1b replicon) | IC50 [1]
Cc1nc2ccccc2c2c1O[C@]1(CC2)C[C@H]2C(=O)N[C@]3(C(=O)NS(=O)(=O)C4(C)CC4)C[C@H]3/C=C\CCCCC[C@H](NC(=O)NC3CCCC3)C(=O)N2C1 [Example 283, (2R,6S,12Z,13aS,14aR,16aS)-6-[(cyclopentylcarbamoyl)amino]-5′-methyl-N-[(1-methylcyclopropyl)sulfonyl]-5,16-dioxo-1,1′,2′,6,7,8,9,10,11,13a,14,15,16,16a-tetradecahydrospiro[cyclopropa[e]pyrrolo[1,2-a][1,4]diazacyclopentadecine-2,3′-pyrano[2,3-c]quinoline]-14a(5H)-carboxamide] | 7.72 | 0.012 nM | – | –
Cc1nc2ccccc2c2c1O[C@]1(CC2)C[C@H]2C(=O)N[C@]3(C(=O)NS(=O)(=O)C4(C)CC4)C[C@H]3/C=C\CCCCC[C@H](NC(=O)NCc3ccccc3)C(=O)N2C1 [Example 284, (2R,6S,12Z,13aS,14aR,16aS)-6-[(benzylcarbamoyl)amino]-5′-methyl-N-[(1-methylcyclopropyl)sulfonyl]-5,16-dioxo-1,1′,2′,6,7,8,9,10,11,13a,14,15,16,16a-tetradecahydrospiro[cyclopropa[e]pyrrolo[1,2-a][1,4]diazacyclopentadecine-2,3′-pyrano[2,3-c]quinoline]-14a(5H)-carboxamide] | 7.23 | 0.038 nM | – | –
Cc1nc2ccccc2c2c1O[C@]1(CC2)C[C@H]2C(=O)N[C@]3(C(=O)NS(=O)(=O)C4(C)CC4)C[C@H]3/C=C\CCCCC[C@H](NC(=O)NC3CCCCC3)C(=O)N2C1 [Example 285, (2R,6S,12Z,13aS,14aR,16aS)-6-[(cyclohexylcarbamoyl)amino]-5′-methyl-N-[(1-methylcyclopropyl)sulfonyl]-5,16-dioxo-1,1′,2′,6,7,8,9,10,11,13a,14,15,16,16a-tetradecahydrospiro[cyclopropa[e]pyrrolo[1,2-a][1,4]diazacyclopentadecine-2,3′-pyrano[2,3-c]quinoline]-14a(5H)-carboxamide] | 7.99 | 0.002 nM | – | –
CCNC(=O)N[C@H]1CCCCC/C=C\[C@@H]2C[C@@]2(C(=O)NS(=O)(=O)C2(C)CC2)NC(=O)[C@@H]2C[C@]3(CCc4c(c(C)nc5ccccc45)O3)CN2C1=O [Example 286, (2R,6S,12Z,13aS,14aR,16aS)-6-[(ethylcarbamoyl)amino]-5′-methyl-N-[(1-methylcyclopropyl)sulfonyl]-5,16-dioxo-1,1′,2′,6,7,8,9,10,11,13a,14,15,16,16a-tetradecahydrospiro[cyclopropa[e]pyrrolo[1,2-a][1,4]diazacyclopentadecine-2,3′-pyrano[2,3-c]quinoline]-14a(5H)-carboxamide] | – | – | 6.93 | 0.015 nM
CCCCNC(=O)N[C@H]1CCCCC/C=C\[C@@H]2C[C@@]2(C(=O)NS(=O)(=O)C2(C)CC2)NC(=O)[C@@H]2C[C@]3(CCc4c(c(C)nc5ccccc45)O3)CN2C1=O [Example 287, (2R,6S,12Z,13aS,14aR,16aS)-6-[(butylcarbamoyl)amino]-5′-methyl-N-[(1-methylcyclopropyl)sulfonyl]-5,16-dioxo-1,1′,2′,6,7,8,9,10,11,13a,14,15,16,16a-tetradecahydrospiro[cyclopropa[e]pyrrolo[1,2-a][1,4]diazacyclopentadecine-2,3′-pyrano[2,3-c]quinoline]-14a(5H)-carboxamide] | 7.64 | 0.013 nM | – | –
Cc1nc2ccccc2c2c1O[C@]1(CC2)C[C@H]2C(=O)N[C@]3(C(=O)NS(=O)(=O)C4(C)CC4)C[C@H]3/C=C\CCCCC[C@H](NC(=O)NCCc3ccccc3)C(=O)N2C1 [Example 288, (2R,6S,12Z,13aS,14aR,16aS)-5′-methyl-N-[(1-methylcyclopropyl)sulfonyl]-5,16-dioxo-6-{[(2-phenylethyl)carbamoyl]amino}-1,1′,2′,6,7,8,9,10,11,13a,14,15,16,16a-tetradecahydrospiro[cyclopropa[e]pyrrolo[1,2-a][1,4]diazacyclopentadecine-2,3′-pyrano[2,3-c]quinoline]-14a(5H)-carboxamide] | 6.21 | 0.131 nM | – | –
CCN(CC)C(=O)N[C@H]1CCCCC/C=C\[C@@H]2C[C@@]2(C(=O)NS(=O)(=O)C2(C)CC2)NC(=O)[C@@H]2C[C@]3(CCc4c(c(C)nc5ccccc45)O3)CN2C1=O [Example 289, (2R,6S,12Z,13aS,14aR,16aS)-6-[(diethylcarbamoyl)amino]-5′-methyl-N-[(1-methylcyclopropyl)sulfonyl]-5,16-dioxo-1,1′,2′,6,7,8,9,10,11,13a,14,15,16,16a-tetradecahydrospiro[cyclopropa[e]pyrrolo[1,2-a][1,4]diazacyclopentadecine-2,3′-pyrano[2,3-c]quinoline]-14a(5H)-carboxamide] | 8.16 | 0.023 nM | – | –
Cc1nc2ccccc2c2c1O[C@]1(CC2)C[C@H]2C(=O)N[C@]3(C(=O)NS(=O)(=O)C4(C)CC4)C[C@H]3/C=C\CCCCC[C@H](NC(=O)N3CCCCC3)C(=O)N2C1 [Example 290, (2R,6S,12Z,13aS,14aR,16aS)-5′-methyl-N-[(1-methylcyclopropyl)sulfonyl]-5,16-dioxo-6-[(piperidin-1-ylcarbonyl)amino]-1,1′,2′,6,7,8,9,10,11,13a,14,15,16,16a-tetradecahydrospiro[cyclopropa[e]pyrrolo[1,2-a][1,4]diazacyclopentadecine-2,3′-pyrano[2,3-c]quinoline]-14a(5H)-carboxamide] | 8.15 | 0.017 nM | – | –
Cc1nc2ccccc2c2c1O[C@]1(CC2)C[C@H]2C(=O)N[C@]3(C(=O)NS(=O)(=O)C4(C)CC4)C[C@H]3/C=C\CCCCC[C@H](NC(=O)N3CCOCC3)C(=O)N2C1 [Example 291, (2R,6S,12Z,13aS,14aR,16aS)-5′-methyl-N-[(1-methylcyclopropyl)sulfonyl]-6-[(morpholin-4-ylcarbonyl)amino]-5,16-dioxo-1,1′,2′,6,7,8,9,10,11,13a,14,15,16,16a-tetradecahydrospiro[cyclopropa[e]pyrrolo[1,2-a][1,4]diazacyclopentadecine-2,3′-pyrano[2,3-c]quinoline]-14a(5R)-carboxamide] | 7.07 | 0.032 nM | – | –
Cc1nc2ccccc2c2c1O[C@]1(CC2)C[C@H]2C(=O)N[C@]3(C(=O)NS(=O)(=O)C4(C)CC4)C[C@H]3/C=C\CCCCC[C@H](NC(=O)N(C)c3ccccc3)C(=O)N2C1 [Example 292, (2R,6S,12Z,13aS,14aR,16aS)-5′-methyl-N-[(1-methylcyclopropyl)sulfonyl]-6-{[methyl(phenyl)carbamoyl]amino}-5,16-dioxo-1,1′,2′,6,7,8,9,10,11,13a,14,15,16,16a-tetradecahydrospiro[cyclopropa[e]pyrrolo[1,2-a][1,4]diazacyclopentadecine-2,3′-pyrano[2,3-c]quinoline]-14a(5H)-carboxamide] | 7.56 | 0.077 nM | – | –
Cc1nc2ccccc2c2c1O[C@]1(CC2)C[C@H]2C(=O)N[C@]3(C(=O)NS(=O)(=O)C4(C)CC4)C[C@H]3/C=C\CCCCC[C@H](NC(=O)N(C(C)C)C(C)C)C(=O)N2C1 [Example 293, (2R,6S,12Z,13aS,14aR,16aS)-6-{[di(propan-2-yl)carbamoyl]amino}-5′-methyl-N-[(1-methylcyclopropyl)sulfonyl]-5,16-dioxo-1,1′,2′,6,7,8,9,10,11,13a,14,15,16,16a-tetradecahydrospiro[cyclopropa[e]pyrrolo[1,2-a][1,4]diazacyclopentadecine-2,3′-pyrano[2,3-c]quinoline]-14a(5H)-carboxamide] | 8.31 | 0.021 nM | – | –
